# Laboratory results as given in patent US20080227780A1, “SOLUBLE EPOXIDE HYDROLASE INHIBITORS” (Arete Therapeutics, Inc., priority 2007, published 2008).
# Tested on: soluble epoxide hydrolase (sEH)
# Assay: Fluorescent assay for soluble epoxide hydrolase (CMNPC substrate), percent inhibition at the recited concentration
# Type: biochemical
# Details: Inhibition Conc. 50 nM
# Excerpt: Fluorescent Assay for Mouse and Human Soluble Epoxide Hydrolase Recombinant mouse sEH (MsEH) and human sEH (HsEH) were produced in a baculovirus expression system as previously reported. Grant et al., J. Biol. Chem., 268:17628-17633 (1993); Beetham et al., Arch. Biochem. Biophys., 305:197-201 (1993). The expressed proteins were purified from cell lysate by affinity chromatography. Wixtrom et al., Anal. Biochem., 169:71-80 (1988). Protein concentration was quantified using the Pierce BCA assay using bovine serum albumin as the calibrating standard. The preparations were at least 97% pure as judged by SDS-PAGE and scanning densitometry. They contained no detectable esterase or glutathione transferase activity which can interfere with the assay. The assay was also evaluated with similar results in crude cell lysates or homogenate of tissues. The IC50s for each inhibitor were determined according to the following procedure: […] Jones P. D. et al.; Analytical Biochemistry 2005; 343: pp. 66-75) Bis/Tris HCl 25 mM pH 7.0 containing 0.1 mg/mL of BSA (buffer […] at 0.25 mM in DMSO. Mother solution of enzyme in buffer A (Mouse sEH at 6 μg/mL and Human sEH at 5 μg/mL). Inhibitor dissolved in DMSO at the appropriate concentration. In a black 96 well plate, fill all the wells with 150 μL of buffer A. Add 2 μL of DMSO in well A2 and A3, and then add 2 μL of inhibitor solution in A1 and A4 through A12. Add 150 μL of buffer A in row A, then mix several time and transfer 150 μL to row B. Repeat this operation up to row H. The 150 μL removed from row H is discarded. Add 20 μL of buffer A in column 1 and 2, then add 20 μL of enzyme solution to column 3 to 12. Incubate the plate for 5 minutes in the plate reader at 30° C. During incubation prepare the working solution of substrate by mixing 3.68 mL of buffer A (4×0.920 mL) with 266 μL (2×133 μL) of substrate solution). At t=0, add 30 μL of working substrate solution with multi-channel pipette labeled “Briggs 303” and start the reading ([S]final: 5 μM). Read with ex: 330 nm (20 nm) and em: 465 nm (20 nm) every 30 second for 10 minutes. The velocities are used to analyze and calculate the IC50s. Tables 1-7 above provide the percent inhibition of the enzyme when tested at the concentration recited therein.
row,SMILES,% inh. [%]
1,"CC(C)(C)C(=O)N1CCC(NC(=O)Nc2ccc(OC(F)(F)F)cc2)CC1 [Compound 7-19, 1-(1-pivaloylpiperidin-4-yl)-3-(4-(trifluoro-methoxy)phenyl)urea]",97
2,"CC(C)OC(=O)N1CCC(NC(=O)Nc2ccc(C(F)(F)F)cc2)CC1 [Compound 7-20, isopropyl 4-(3-(4-(trifluoromethyl)phenyl)ureido)piperidine-1-carboxylate]",95
3,"CN(C)C(=O)N1CCC(NC(=O)Nc2ccc(C(F)(F)F)cc2)CC1 [Compound 7-21, N,N-dimethyl-4-(3-(4-(trifluoromethyl)phenyl)-ureido)piperidine-1-carboxamide]",86
4,"CC(C)OC(=O)N1CCC(NC(=O)Nc2ccc(OC(F)(F)F)cc2)CC1 [Compound 7-22, isopropyl 4-(3-(4-(trifluoromethoxy)phenyl)ureido)piperidine-1-carboxylate]",99
5,"CC(C)OC(=O)N1CCC(NC(=O)NC23CC4CC(CC(C4)C2)C3)CC1 [Compound 7-23, isopropyl 4-(3-(1-adamantyl)ureido)piperidine-1-carboxylate]",93
6,"O=C(NC1CCN(S(=O)(=O)c2ccc(-c3ccccc3)cc2)CC1)NC12CC3CC(CC(C3)C1)C2 [Compound 7-24, 1-(1-(biphenyl-4-ylsulfonyl)piperidin-4-yl)-3-adamantylurea]",96
7,"O=C(NC1CCN(S(=O)(=O)c2ccc3ccccc3c2)CC1)NC12CC3CC(CC(C3)C1)C2 [Compound 7-25, 1-adamantyl-3-(1-(naphthalen-2-ylsulfonyl)piperidin-4-yl)urea]",99
8,"O=C(NC1CCN(S(=O)(=O)c2ccccc2)CC1)NC12CC3CC(CC(C3)C1)C2 [Compound 7-26, 1-adamantyl-3-(1-(phenylsulfonyl)piperidin-4-yl)urea]",97
9,O=C(NC1CCN(S(=O)(=O)c2ccc(Cl)cc2)CC1)NC12CC3CC(CC(C3)C1)C2 [Compound 7-27],95
10,"O=C(NC1CCN(S(=O)(=O)c2cccs2)CC1)NC12CC3CC(CC(C3)C1)C2 [Compound 7-28, 1-adamantyl-3-(1-(thiophen-2-ylsulfonyl)piperidin-4-yl)urea]",94
11,"O=C(NC1CCN(S(=O)(=O)Cc2ccccc2)CC1)NC12CC3CC(CC(C3)C1)C2 [Compound 7-29, 1-(1-(benzylsulfonyl)piperidin-4-yl)-3-adamantylurea]",93
12,"CC(C)(C)c1ccc(S(=O)(=O)N2CCC(NC(=O)NC34CC5CC(CC(C5)C3)C4)CC2)cc1 [Compound 7-30, 1-(1-(4-tert-butylphenylsulfonyl)piperidin-4-yl)-3-adamantylurea]",97
13,"O=C(NC1CCN(S(=O)(=O)c2ccccc2C(F)(F)F)CC1)NC12CC3CC(CC(C3)C1)C2 [Compound 7-32, 1-adamantyl-3-(1-(2-(trifluoromethyl)phenylsulfonyl)piperidin-4-yl)urea]",97
14,"Cc1ccccc1S(=O)(=O)N1CCC(NC(=O)NC23CC4CC(CC(C4)C2)C3)CC1 [Compound 7-33, 1-adamantyl-3-(1-(o-tolylsulfonyl)piperidin-4-yl)urea]",99
15,"Cc1c(Cl)cccc1S(=O)(=O)N1CCC(NC(=O)NC23CC4CC(CC(C4)C2)C3)CC1 [Compound 7-34, 1-(1-(3-chloro-2-methylphenylsulfonyl)piperidin-4-yl)-3-adamantylurea]",91
16,"Cc1cccc(Cl)c1S(=O)(=O)N1CCC(NC(=O)NC23CC4CC(CC(C4)C2)C3)CC1 [Compound 7-35, 1-(1-(2-chloro-6-methylphenylsulfonyl)piperidin-4-yl)-3-adamantylurea]",98
17,"O=C(NC1CCN(S(=O)(=O)c2ccc(C(F)(F)F)cc2)CC1)NC12CC3CC(CC(C3)C1)C2 [Compound 7-36, 1-adamantyl-3-(1-(4-(trifluoromethyl)phenylsulfonyl)piperidin-4-yl)urea]",99
18,O=C(NC1CCN(S(=O)(=O)c2ccc(Cl)c(Cl)c2)CC1)NC12CC3CC(CC(C3)C1)C2 [Compound 7-37],100
19,"O=C(NC1CCN(S(=O)(=O)c2cccc(C(F)(F)F)c2)CC1)NC12CC3CC(CC(C3)C1)C2 [Compound 7-38, 1-adamantyl-3-(1-(3-(trifluoromethyl)phenylsulfonyl)piperidin-4-yl)urea]",100
20,"Cn1cnc(C(=O)N2CCC(NC(=O)NC34CC5CC(CC(C5)C3)C4)CC2)c1 [Compound 7-39, 1-adamantyl-3-(1-(1-methyl-1H-imidazole-4-carbonyl)piperidin-4-yl)urea]",89
21,"O=C(NC1CCCCC1)NC1CCN(C(=O)c2ccccn2)CC1 [Compound 7-40, 1-cyclohexyl-3-(1-picolinoylpiperidin-4-yl)urea]",82
22,"CS(=O)(=O)c1ccc(S(=O)(=O)N2CCC(NC(=O)NC34CC5CC(CC(C5)C3)C4)CC2)cc1 [Compound 7-41, 1-adamantyl-3-(1-(4-(methylsulfonyl)phenylsulfonyl)piperidin-4-yl)urea]",92
23,"O=C(NC1CCCCC1)NC1CCN(S(=O)(=O)c2ccc(Cl)cc2)CC1 [Compound 7-42, 1-(1-(4-chlorophenylsulfonyl)piperidin-4-yl)-3-cyclohexylurea]",95
24,"O=C(NC1CCCCC1)NC1CCN(S(=O)(=O)c2cccc(C(F)(F)F)c2)CC1 [Compound 7-44, 1-cyclohexyl-3-(1-(3-(trifluoromethyl)phenylsulfonyl)piperidin-4-yl)urea]",81
25,"O=C(NC1CCN(S(=O)(=O)c2ccc(C(=O)O)cc2)CC1)NC12CC3CC(CC(C3)C1)C2 [Compound 7-45, 4-(4-(3-adamantylureido)piperidin-1-ylsulfonyl)benzoic acid]",92
26,"O=C(NC1CCN(C(=O)c2ccc(Cl)cc2)CC1)NC12CC3CC(CC(C3)C1)C2 [Compound 7-46, 1-(1-(4-chlorobenzoyl)piperidin-4-yl)-3-adamantylurea]",96
27,"CC(C)(C)OC(=O)N1CCC(NC(=O)Nc2ccc(C(F)(F)F)cc2)CC1 [Compound 7-47, tert-butyl 4-(3-(4-(trifluoromethyl)phenyl)ureido)piperidine-1-carboxylate]",100

# Same assay, conditions: Inhibition Conc. 200 nM
row,SMILES,% inh. [%]
1,"CC(C)(C)OC(=O)N1CCC(NC(=O)NC2CCCCCC2)CC1 [Compound 7-48, tert-butyl 4-(3-cycloheptylureido)piperidine-1-carboxylate]",100
2,"CC(C)(C)OC(=O)N1CCC(NC(=O)Nc2ccc(S(C)(=O)=O)cc2)CC1 [Compound 7-49, tert-butyl 4-(3-(4-(methylsulfonyl)phenyl)ureido)piperidine-1-carboxylate]",83
3,"CC(C)(C)OC(=O)N1CCC(NC(=O)NC2CCC2)CC1 [Compound 7-50, tert-butyl 4-(3-cyclobutylureido)piperidine-1-carboxylate]",76
4,"CC(C)S(=O)(=O)N1CCC(NC(=O)Nc2ccc(OC(F)(F)F)cc2)CC1 [Compound 7-55, 1-(1-(isopropylsulfonyl)piperidin-4-yl)-3-(4-(trifluoromethoxy)phenyl)urea]",94
5,"O=C(NC1CCN(C(=O)NC23CC4CC(CC(C4)C2)C3)CC1)NC12CC3CC(CC(C3)C1)C2 [Compound 7-56, N-adamantyl-4-(3-adamantylureido)piperidine-1-carboxamide]",86

# Same assay, conditions: Inhibition Conc. 500 nM
row,SMILES,% inh. [%]
1,"CC(C)(C)OC(=O)N1CCC(NC(=O)NC2CCCC2)CC1 [Compound 7-17, tert-butyl 4-(3-cyclopentylureido)-piperidine-1-carboxylate]",85
2,"CC(=O)N1CCC(NC(=O)NC2CCCCC2)CC1 [Compound 7-43, 1-(1-acetylpiperidin-4-yl)-3-cyclohexylurea]",86

# Same assay, conditions: Inhibition Conc. 2000 nM
row,SMILES,% inh. [%]
1,"CC(=O)N1CCC(NC(=O)Nc2ccc(N(C)C)cc2)CC1 [Compound 7-52, 1-(1-acetylpiperidin-4-yl)-3-(4-(dimethylamino)phenyl)urea]",44
2,"CC(=O)N1CCC(NC(=O)Nc2ccc(C(=O)O)cc2)CC1 [Compound 7-53, 4-(3-(1-acetylpiperidin-4-yl)ureido)benzoic acid]",17
3,"CC(C)(C)OC(=O)N1CCC(NC(=O)Nc2ccc(C(=O)O)cc2)CC1 [Compound 7-54, 4-(3-(1-(tert-butoxycarbonyl)piperidin-4-yl)ureido)benzoic acid]",55

# Same assay, conditions: Inhibition Conc. 5000 nM
row,SMILES,% inh. [%]
1,"CC(=O)N1CCC(NC(=O)NC2CCCC2)CC1 [Compound 7-18, 1-(1-acetylpiperidin-4-yl)-3-cyclopentylurea]",74
